Reference: patent publication US20170349593A1, “BTK INHIBITORS” (MERCK SHARP & DOHME CORP., priority 2014, published 2017)

Legend:
[1] = target: T1, BTK enzyme (recombinant full-length BTK, hBTK) (Homo sapiens, UniProt Q06187); assay: Btk enzyme activity assay (LANCE TR-FRET); assay type: biochemical; details: 50 pM hBTK, 25 μM ATP, 60 minute compound and enzyme incubation, concentration range 1 μM to 0.017 nM, read-out: BTK binding IC50
T1 construct: recombinant protein from baculovirus-transfected S 19 cells: full-length BTK, 6 HIS-tag cleaved; 6 HIS-tag (cleaved yes); made in house

[2] = system: adenosine uptake into HeLa cells; assay: [3H]Adenosine uptake assay; assay type: cell-based; details: Homo sapiens; accumulation of [3H]adenosine into HeLa cells; concentration range 10 μM to 0.032 nM; read-out: ADU inhibition IC50
Procedure, shortened: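 HeLa cells (25 000/well), plated overnight, were preincubated 30 minutes at ambient temperature with compound in HBSS + 5% FBS. Ten-point titrations ran from 10 μM to 0.032 nM final. [3H]adenosine was added from a 500 nM solution for 60 minutes, and uptake was measured by scintillation proximity counting; IC50 came from a 4-parameter fit.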

T1 sequence (Q06187 whole entry): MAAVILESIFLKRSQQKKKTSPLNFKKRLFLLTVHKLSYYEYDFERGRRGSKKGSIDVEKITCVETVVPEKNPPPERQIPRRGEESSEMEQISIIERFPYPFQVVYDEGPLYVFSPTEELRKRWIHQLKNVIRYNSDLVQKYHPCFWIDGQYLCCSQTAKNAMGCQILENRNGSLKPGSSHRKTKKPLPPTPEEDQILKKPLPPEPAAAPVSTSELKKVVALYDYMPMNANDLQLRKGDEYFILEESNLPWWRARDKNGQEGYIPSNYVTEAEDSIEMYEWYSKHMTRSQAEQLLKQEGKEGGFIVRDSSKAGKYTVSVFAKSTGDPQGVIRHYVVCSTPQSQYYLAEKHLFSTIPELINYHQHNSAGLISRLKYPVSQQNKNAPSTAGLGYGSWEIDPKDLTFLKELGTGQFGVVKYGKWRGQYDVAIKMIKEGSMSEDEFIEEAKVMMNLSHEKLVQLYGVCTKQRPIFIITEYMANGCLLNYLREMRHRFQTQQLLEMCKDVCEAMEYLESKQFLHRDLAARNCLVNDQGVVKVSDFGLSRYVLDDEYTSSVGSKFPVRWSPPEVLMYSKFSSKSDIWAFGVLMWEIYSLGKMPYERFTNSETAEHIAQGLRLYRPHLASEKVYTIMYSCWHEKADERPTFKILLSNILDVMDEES

Compound	IC50 [1] [nM]	IC50 [2] [nM]
COc1cc(C(=O)Nc2cc(C(F)(F)F)ccn2)ccc1-c1nc([C@H]2CN(C(=O)C3CC3)[C@@H](C)CO2)n2c(Cl)cnc(N)c12 [Example 47, 4-{8-amino-5-chloro-3-[(2R,5S)-4-(cyclopropylcarbonyl)-5-methylmorpholin-2-yl]imidazo[1,5-a]pyrazin-1-yl}-3-methoxy-N-[4-(trifluoromethyl)pyridin-2-yl]benzamide]	5.59	6090
C[C@H]1CO[C@@H](c2nc(-c3ccc(C(=O)Nc4cc(C(F)(F)F)ccn4)cc3F)c3c(N)ncc(Cl)n23)CN1C1CCOCC1 [Example 48, 4-{8-amino-5-chloro-3-[(2R,5S)-5-methyl-4-(tetrahydro-2H-pyran-4-yl)morpholin-2-yl]imidazo[1,5-a]pyrazin-1-yl}-3-fluoro-N-[4-(trifluoromethyl)pyridin-2-yl]benzamide]	0.303	397
COc1cc(C(=O)Nc2cc(C(F)(F)F)ccn2)ccc1-c1nc([C@H]2CN(C(=O)C3CCOCC3)[C@@H](C)CO2)n2ccnc(N)c12 [Example 49, 4-{8-amino-3-[(2R,5S)-5-methyl-4-(tetrahydro-2H-pyran-4-ylcarbonyl)morpholin-2-yl]imidazo[1,5-a]pyrazin-1-yl}-3-methoxy-N-[4-(trifluoromethyl)pyridin-2-yl]benzamide]	1.74	1780
COCCC(=O)N1C[C@H](c2nc(-c3ccc(C(=O)Nc4cc(C(F)(F)F)ccn4)cc3OC)c3c(N)nccn23)OC[C@@H]1C [Example 50, 4-{8-amino-3-[(2R,5S)-4-(3-methoxypropanoyl)-5-methylmorpholin-2-yl]imidazo[1,5-a]pyrazin-1-yl}-3-methoxy-N-[4-(trifluoromethyl)pyridin-2-yl]benzamide]	2.17	2260
COc1cc(C(=O)Nc2cc(C(F)(F)F)ccn2)ccc1-c1nc([C@H]2CN(C(=O)[C@H](C)OC)[C@@H](C)CO2)n2ccnc(N)c12 [Example 51, 4-(8-amino-3-{(2R,5S)-4-[(2S)-2-methoxypropanoyl]-5-methylmorpholin-2-yl}imidazo[1,5-a]pyrazin-1-yl)-3-methoxy-N-[4-(trifluoromethyl)pyridin-2-yl]benzamide]	4.31	1410
COc1cc(C(=O)Nc2cc(C(F)(F)F)ccn2)ccc1-c1nc([C@H]2CN(C(=O)[C@H](C)O)[C@@H](C)CO2)n2ccnc(N)c12 [Example 52, 4-(8-amino-3-{(2R,5S)-4-[(2S)-2-hydroxypropanoyl]-5-methylmorpholin-2-yl}imidazo[1,5-a]pyrazin-1-yl)-3-methoxy-N-[4-(trifluoromethyl)pyridin-2-yl]benzamide]	2.26	1990
COc1cc(C(=O)Nc2cc(C(F)(F)F)ccn2)ccc1-c1nc([C@H]2CN(Cc3[nH]cnc3C)[C@@H](C)CO2)n2ccnc(N)c12 [Example 53, 4-(8-amino-3-{(2R,5S)-5-methyl-4-[(4-methyl-1H-imidazol-5-yl)methyl]morpholin-2-yl}imidazo[1,5-a]pyrazin-1-yl)-3-methoxy-N-[4-(trifluoromethyl)pyridin-2-yl]benzamide]	5.8	1030
COc1cc(C(=O)Nc2cc(C(F)(F)F)ccn2)ccc1-c1nc([C@H]2CN(Cc3cnn(C)c3)[C@@H](C)CO2)n2ccnc(N)c12 [Example 54, 4-(8-amino-3-{(2R,5S)-5-methyl-4-[(1-methyl-1H-pyrazol-4-yl)methyl]morpholin-2-yl}imidazo[1,5-a]pyrazin-1-yl)-3-methoxy-N-[4-(trifluoromethyl)pyridin-2-yl]benzamide]	2.28	1650
COc1cc(C(=O)Nc2cc(C(F)(F)F)ccn2)ccc1-c1nc([C@H]2CN(C3COC3)[C@@H](C)CO2)n2ccnc(N)c12 [Example 55, 4-{8-amino-3-[(2R,5S)-5-methyl-4-oxetan-3-ylmorpholin-2-yl]imidazo[1,5-a]pyrazin-1-yl}-3-methoxy-N-[4-(trifluoromethyl)pyridin-2-yl]benzamide]	2.54	2060
C[C@H]1CO[C@@H](c2nc(-c3ccc(C(=O)Nc4ccccn4)cc3)c3c(N)nccn23)CN1C1CCOCC1 [Example 57, 4-{8-amino-3-[(2R,5S)-5-methyl-4-(tetrahydro-2H-pyran-4-yl)morpholin-2-yl]imidazo[1,5-a]pyrazin-1-yl}-N-pyridin-2-ylbenzamide]	26.7	1020
COc1cc(C(=O)Nc2cc(C(F)(F)F)ccn2)ccc1-c1nc([C@H]2CN(C3CCOCC3)[C@@H](C)CO2)n2ccnc(N)c12 [Example 60, 4-{8-amino-3-[(2R,5S)-5-methyl-4-(tetrahydro-2H-pyran-4-yl)morpholin-2-yl]imidazo[1,5-a]pyrazin-1-yl}-3-methoxy-N-[4-(trifluoromethyl)pyridin-2-yl]benzamide]	1.57	1620
C[C@H]1CO[C@@H](c2nc(-c3ccc(C(=O)Nc4cc(C5CC5)ccn4)cc3F)c3c(N)nccn23)CN1C1CCOCC1 [Example 61, 4-{8-amino-3-[(2R,5S)-5-methyl-4-(tetrahydro-2H-pyran-4-yl)morpholin-2-yl]imidazo[1,5-a]pyrazin-1-yl}-N-(4-cyclopropylpyridin-2-yl)-3-fluorobenzamide]	0.814	386
C[C@H]1CO[C@@H](c2nc(-c3ccc(C(=O)Nc4ccccn4)cc3)c3c(N)nccn23)CN1C(=O)C1CC1 [Example 62, 4-{8-amino-3-[(2R,5S)-4-(cyclopropylcarbonyl)-5-methylmorpholin-2-yl]imidazo[1,5-a]pyrazin-1-yl}-N-pyridin-2-ylbenzamide]	10.8	256
Nc1nccn2c([C@H]3CN(C(=O)C4CC4)[C@H](CO)CO3)nc(-c3ccc(C(=O)Nc4cc(C(F)(F)F)ccn4)cc3F)c12 [Example 63, 4-{8-amino-3-[(2R,5R)-4-(cyclopropylcarbonyl)-5-(hydroxymethyl)morpholin-2-yl]imidazo[1,5-a]pyrazin-1-yl}-3-fluoro-N-[4-(trifluoromethyl)pyridin-2-yl]benzamide]	5.28	48.5

More lines, now with the values ahead:

IC50 [1] [nM]	IC50 [2] [nM]	Compound
4.33	260	Cn1cc(CN2C[C@H](c3nc(-c4ccc(C(=O)Nc5cc(C(F)(F)F)ccn5)cc4F)c4c(N)nccn34)OC[C@H]2CO)cn1 [Example 64, 4-(8-amino-3-{(2R,5R)-5-(hydroxymethyl)-4-[(1-methyl-1H-pyrazol-4-yl)methyl]morpholin-2-yl}imidazo[1,5-a]pyrazin-1-yl)-3-fluoro-N-[4-(trifluoromethyl)pyridin-2-yl]benzamide]
6.78	136	Nc1nccn2c([C@H]3CN(C4CCOCC4)[C@H](CO)CO3)nc(-c3ccc(C(=O)Nc4cc(C(F)(F)F)ccn4)cc3F)c12 [Example 65, 4-{8-amino-3-[(2R,5R)-5-(hydroxymethyl)-4-(tetrahydro-2H-pyran-4-yl)morpholin-2-yl]imidazo[1,5-a]pyrazin-1-yl}-3-fluoro-N-[4-(trifluoromethyl)pyridin-2-yl]benzamide]
1.23	24.6	Nc1nccn2c([C@H]3CN(C4COC4)[C@H](CO)CO3)nc(-c3ccc(C(=O)Nc4cc(C(F)(F)F)ccn4)cc3F)c12 [Example 66, 4-{8-amino-3-[(2R,5R)-5-(hydroxymethyl)-4-oxetan-3-ylmorpholin-2-yl]imidazo[1,5-a]pyrazin-1-yl}-3-fluoro-N-[4-(trifluoromethyl)pyridin-2-yl]benzamide]
1.97	129	Nc1nccn2c([C@H]3CN[C@H](CO)CO3)nc(-c3ccc(C(=O)Nc4cc(C(F)(F)F)ccn4)cc3F)c12 [Example 67, 4-{8-amino-3-[(2R,5R)-5-(hydroxymethyl)morpholin-2-yl]imidazo[1,5-a]pyrazin-1-yl}-3-fluoro-N-[4-(trifluoromethyl)pyridin-2-yl]benzamide]
3.02	76.6	C[C@H](O)C(=O)N1C[C@H](c2nc(-c3ccc(C(=O)Nc4cc(C(F)(F)F)ccn4)cc3F)c3c(N)nccn23)OC[C@H]1C [Example 68, 4-(8-amino-3-{(2R,5R)-4-[(2S)-2-hydroxypropanoyl]-5-methylmorpholin-2-yl}imidazo[1,5-a]pyrazin-1-yl)-3-fluoro-N-[4-(trifluoromethyl)pyridin-2-yl]benzamide]
10.9	139	C[C@@H]1CO[C@@H](c2nc(-c3ccc(C(=O)Nc4cc(C(F)(F)F)ccn4)cc3F)c3c(N)nccn23)CN1C(=O)C1(C)CC1 [Example 69, 4-(8-amino-3-{(2R,5R)-5-methyl-4-[(1-methylcyclopropyl)carbonyl]morpholin-2-yl}imidazo[1,5-a]pyrazin-1-yl)-3-fluoro-N-[4-(trifluoromethyl)pyridin-2-yl]benzamide]
13.8	135	COCC(=O)N1C[C@H](c2nc(-c3ccc(C(=O)Nc4cc(C(F)(F)F)ccn4)cc3F)c3c(N)nccn23)OC[C@H]1C [Example 70, 4-{8-amino-3-[(2R,5R)-4-(methoxyacetyl)-5-methylmorpholin-2-yl]imidazo[1,5-a]pyrazin-1-yl}-3-fluoro-N-[4-(trifluoromethyl)pyridin-2-yl]benzamide]
6.63	110	CC(=O)N1C[C@H](c2nc(-c3ccc(C(=O)Nc4cc(C(F)(F)F)ccn4)cc3F)c3c(N)nccn23)OC[C@H]1C [Example 71, 4-{3-[(2R,5R)-4-acetyl-5-methylmorpholin-2-yl]-8-aminoimidazo[1,5-a]pyrazin-1-yl}-3-fluoro-N-[4-(trifluoromethyl)pyridin-2-yl]benzamide]
